Legend:
[1] = DRUGMATRIX: GABAA, Chloride Channel, TBOB radioligand binding (ligand: [3H] TBOB); format: cell membranes, Rattus norvegicus, Wistar, Cerebral cortex, Membrane; settings: Not Active = under 50% inhibition at 10 µM
[2] = DRUGMATRIX: Phosphodiesterase PDE4 enzyme inhibition (substrate: [3H]cAMP + cAMP); settings: u-937; Not Active = under 50% inhibition at 10 µM
[3] = DRUGMATRIX: Nicotinic Acetylcholine radioligand binding (ligand: [125I] Epibatidine); format: cell membranes, Membrane; settings: imr-32; Not Active = under 50% inhibition at 10 µM
[4] = DRUGMATRIX: GABAA, Muscimol, Central radioligand binding (ligand: [3H] Muscimol); format: cell membranes, Rattus norvegicus, Wistar, Brain, Membrane; settings: Not Active = under 50% inhibition at 10 µM
[5] = DRUGMATRIX: Phorbol Ester radioligand binding (ligand: [3H] PDBu); format: cell membranes, Mus musculus, ICR, Brain, Membrane; settings: Not Active = under 50% inhibition at 10 µM
Cytochrome P450 2C9 = Cytochrome P450 2C9 (Homo sapiens, UniProt P11712); settings: bti-tn-5b1-4; further: in other assays of this panel Not Active means under 50% inhibition at 10 µM
Chain of Cytochrome P450 2C9 (P11712 whole entry): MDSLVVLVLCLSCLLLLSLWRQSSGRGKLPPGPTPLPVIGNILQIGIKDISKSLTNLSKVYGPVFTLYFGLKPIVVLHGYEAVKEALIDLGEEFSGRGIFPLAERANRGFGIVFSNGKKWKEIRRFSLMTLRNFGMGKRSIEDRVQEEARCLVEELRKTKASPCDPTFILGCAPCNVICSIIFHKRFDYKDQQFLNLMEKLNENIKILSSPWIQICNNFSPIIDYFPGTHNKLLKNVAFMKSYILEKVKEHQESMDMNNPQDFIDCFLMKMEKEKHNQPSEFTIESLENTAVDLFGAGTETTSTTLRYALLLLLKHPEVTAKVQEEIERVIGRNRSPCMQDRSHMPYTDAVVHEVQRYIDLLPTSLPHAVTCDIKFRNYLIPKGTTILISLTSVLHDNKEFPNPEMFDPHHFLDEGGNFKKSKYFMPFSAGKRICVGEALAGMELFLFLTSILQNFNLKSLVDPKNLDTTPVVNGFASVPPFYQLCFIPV

[6] = DRUGMATRIX: Glutamate, AMPA radioligand binding (ligand: [3H] AMPA); format: cell membranes, Rattus norvegicus, Wistar, Cerebral cortex, Membrane; settings: Not Active = under 50% inhibition at 10 µM
[7] = DRUGMATRIX: Sigma2 radioligand binding (ligand: [3H] Ifenprodil); format: cell membranes, Rattus norvegicus, Wistar, Brain, Membrane; settings: Not Active = under 50% inhibition at 10 µM

Compound	IC50 [1]	Ki [1]	IC50 [2]	Ki [2]	IC50 [3]	Ki [3]	IC50 [4]	Ki [4]	IC50 [5]	Ki [5]	IC50 (Cytochrome P450 2C9)	Ki (Cytochrome P450 2C9)	IC50 [6]	Ki [6]	IC50 [7]	Ki [7]	IC50 ([7]; read-out: IC50)	Ki ([7]; read-out: Ki)
CCCCC(=O)N(Cc1ccc(-c2ccccc2-c2nnn[nH]2)cc1)[C@H](C(=O)O)C(C)C	Not Active	Not Active	Not Active	Not Active	Not Active	Not Active	Not Active	Not Active	Not Active	Not Active	Not Active	Not Active	Not Active	Not Active	Not Active	Not Active		
O=C(O)COc1ccc(C(=O)c2cccs2)c(Cl)c1Cl	Not Active	Not Active	Not Active	Not Active	Not Active	Not Active	Not Active	Not Active	Not Active	Not Active	Not Active	Not Active	Not Active	Not Active	Not Active	Not Active		
CN1[C@@H]2CC[C@H]1C[C@@H](OC(c1ccccc1)c1ccccc1)C2 [BENZTROPINE]											Not Active	Not Active						
C[C@@](Cc1ccc(O)c(O)c1)(NN)C(=O)O.O [CARBIDOPA]	Not Active	Not Active	Not Active	Not Active	Not Active	Not Active	Not Active	Not Active	Not Active	Not Active	Not Active	Not Active	Not Active	Not Active	Not Active	Not Active		
CN1CCN(C2=Nc3cc(Cl)ccc3Nc3ccccc32)CC1 [CLOZAPINE]											Not Active	Not Active						
CC(C)NC[C@@H](O)COc1cccc2ccccc12 [DEXPROPRANOLOL]											Not Active	Not Active						
CC(C)NC[C@H](O)COc1cccc2ccccc12 [LEVOPROPRANOLOL]											Not Active	Not Active						
O=C(O)CCCCC1CCSS1 (stereo not drawn) [LIPOIC ACID, ALPHA]	Not Active	Not Active	Not Active	Not Active	Not Active	Not Active	Not Active	Not Active	Not Active	Not Active	Not Active	Not Active	Not Active	Not Active	Not Active	Not Active		
CN(C)C(=O)C(CCN1CCC(O)(c2ccc(Cl)cc2)CC1)(c1ccccc1)c1ccccc1 [LOPERAMIDE]											Not Active	Not Active						
C[C@]12C=CC(=O)C=C1CC[C@@H]1[C@@H]2C(=O)C[C@@]2(C)[C@H]1CC[C@]2(O)C(=O)CO [PREDNISONE]	Not Active	Not Active	Not Active	Not Active	Not Active	Not Active	Not Active	Not Active	Not Active	Not Active			Not Active	Not Active	Not Active	Not Active		
OCCOCCN1CCN(C2=Nc3ccccc3Sc3ccccc32)CC1 [QUETIAPINE]											Not Active	Not Active						
COC(=O)[C@H]1[C@H]2C[C@@H]3c4[nH]c5cc(OC)ccc5c4CCN3C[C@H]2C[C@@H](OC(=O)c2cc(OC)c(OC)c(OC)c2)[C@@H]1OC [RESERPINE]	Not Active	Not Active	Not Active	Not Active	Not Active	Not Active	Not Active	Not Active	Not Active	Not Active	Not Active	Not Active	Not Active	Not Active	Not Active	Not Active		
O=C(O)c1ccccc1O [SALICYLIC ACID]	Not Active	Not Active	Not Active	Not Active	Not Active	Not Active	Not Active	Not Active	Not Active	Not Active	Not Active	Not Active	Not Active	Not Active	Not Active	Not Active		
CC1CCC(NC(=O)N(CCCl)N=O)CC1 (stereo not drawn) [SEMUSTINE]	Not Active	Not Active	Not Active	Not Active	Not Active	Not Active	Not Active	Not Active	Not Active	Not Active	Not Active	Not Active	Not Active	Not Active	Not Active	Not Active		
O=C1C[C@@H]2OCC=C3CN4CC[C@]56c7ccccc7N1[C@H]5[C@H]2[C@H]3C[C@H]46 [STRYCHNINE]	Not Active	Not Active	Not Active	Not Active	Not Active	Not Active	Not Active	Not Active	Not Active	Not Active			Not Active	Not Active	Not Active	Not Active		
C[N+](C)(C)CCOC(=O)CCC(=O)OCC[N+](C)(C)C.[Cl-].[Cl-] [SUCCINYLCHOLINE CHLORIDE]	Not Active	Not Active	Not Active	Not Active	Not Active	Not Active	Not Active	Not Active	Not Active	Not Active	Not Active	Not Active	Not Active	Not Active	Not Active	Not Active		
Nc1ccc(S(=O)(=O)NC(=O)c2ccccc2)cc1 [SULFABENZAMIDE]	Not Active	Not Active	Not Active	Not Active	Not Active	Not Active	Not Active	Not Active	Not Active	Not Active	Not Active	Not Active	Not Active	Not Active	Not Active	Not Active		
CCCCCCCCNC(C)C(O)c1ccc(SC(C)C)cc1 (stereo not drawn) [SULOCTIDIL]	Not Active	Not Active	Not Active	Not Active			Not Active	Not Active	Not Active	Not Active	Not Active	Not Active	Not Active	Not Active			21.4 nM	13.2 nM
O=c1[nH]c(=O)n(C2CCCO2)cc1F (stereo not drawn) [TEGAFUR]	Not Active	Not Active	Not Active	Not Active	Not Active	Not Active	Not Active	Not Active	Not Active	Not Active	Not Active	Not Active	Not Active	Not Active	Not Active	Not Active		
CC(=N)S [THIOACETAMIDE]	Not Active	Not Active	Not Active	Not Active	Not Active	Not Active	Not Active	Not Active	Not Active	Not Active	Not Active	Not Active	Not Active	Not Active	Not Active	Not Active		
Cc1ccc(C(=O)c2ccc(CC(=O)O)n2C)cc1 [TOLMETIN]	Not Active	Not Active	Not Active	Not Active	Not Active	Not Active	Not Active	Not Active	Not Active	Not Active	Not Active	Not Active	Not Active	Not Active	Not Active	Not Active		
CC(=O)OCC(COC(C)=O)OC(C)=O [TRIACETIN]	Not Active	Not Active	Not Active	Not Active	Not Active	Not Active	Not Active	Not Active	Not Active	Not Active	Not Active	Not Active	Not Active	Not Active	Not Active	Not Active		
CN1CCN(CCCN2c3ccccc3Sc3ccc(C(F)(F)F)cc32)CC1 [TRIFLUOPERAZINE]	Not Active	Not Active	Not Active	Not Active	Not Active	Not Active	Not Active	Not Active	Not Active	Not Active			Not Active	Not Active	Not Active	Not Active		
TRANSPLATIN	Not Active	Not Active	Not Active	Not Active	Not Active	Not Active	Not Active	Not Active	Not Active	Not Active	Not Active	Not Active	Not Active	Not Active	Not Active	Not Active		
ZIRCONIUM(IV) CHLORIDE	Not Active	Not Active	Not Active	Not Active	Not Active	Not Active	Not Active	Not Active	Not Active	Not Active	Not Active	Not Active	Not Active	Not Active	Not Active	Not Active		

— ChEMBL document CHEMBL1909046, “DrugMatrix in vitro pharmacology data”
